# How the values were obtained:
# Type in all cases: cell-based
# hNPY2R [1] = molecular target: T1, hNPY2R (Homo sapiens, UniProt P49146); test: CaFlux Assay (FLIPR), Y2R; design: expressed in transfected cells; host or cells: HEK-293 stably transfected with G protein chimera Gαqi9
# T1 sequence (P49146 1-381): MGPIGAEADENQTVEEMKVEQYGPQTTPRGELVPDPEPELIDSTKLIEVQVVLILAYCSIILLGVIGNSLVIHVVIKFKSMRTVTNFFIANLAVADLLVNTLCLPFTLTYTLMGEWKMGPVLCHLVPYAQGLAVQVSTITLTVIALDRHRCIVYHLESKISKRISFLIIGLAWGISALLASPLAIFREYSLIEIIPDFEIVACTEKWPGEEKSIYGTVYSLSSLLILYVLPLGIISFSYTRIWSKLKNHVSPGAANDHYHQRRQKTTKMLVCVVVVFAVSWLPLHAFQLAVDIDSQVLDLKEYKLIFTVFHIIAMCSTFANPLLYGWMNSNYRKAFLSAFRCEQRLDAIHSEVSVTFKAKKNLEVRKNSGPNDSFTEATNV
# Procedure: HEK-293 cells were stably transfected with the G protein chimera Gαqi9 and the hygromycin-B resistance gene were further transfected with the human NPY2 receptor and G418 antibiotic selection. Following selection in both hygromycin-B and G418, individual clones were assayed for their response to PYY. The transfected cells were cultured in DMEM medium supplemented with 10% fetal bovine serum, 50 μg/mL hygromycin-B, 2 mM glutamine, 100 U/mL penicillin, 100 μg/mL streptomycin and 250 μg/mL G418. Cells are harvested with trypsin-EDTA and counted using ViaCount reagent. The cell suspension volume is adjusted to 4.8×10^5 cells/mL with complete growth media. Aliquots of 25 μL are dispensed into 384 well Poly-D Lysine coated black/clear microplates (Falcon) and the microplates were placed in a 37° C. CO2 incubator overnight. Loading Buffer (Calcium-3 Assay Kit, Molecular Devices) was prepared by dissolving the contents of one vial (Express Kit) into […] Hank's Balanced Salt Solution containing 20 mM HEPES and 5 mM probenecid. Aliquots of 25 μL of diluted dye were dispensed into the cell plates and the plates are then incubated for 1 hour at 37° C. During the incubation, test compounds were prepared at 3.5× the desired concentration in HBSS (20 mM HEPES)/0.05% BSA/1% DMSO and transferred to a 384-well plate for use on FLIPR. After incubation, both the cell and compound plates were brought to the FLIPR and 20 μL of the diluted compounds were transferred to the cell plates by the FLIPR. During the assay, fluorescence readings were taken simultaneously from all 384 wells of the cell plate every 1.5 seconds. Five readings were taken to establish a stable baseline, and then 20 μL of sample was rapidly (30 μL/sec) and simultaneously added to each well of the cell plate. The fluorescence was continuously monitored before, during and after sample addition for a total elapsed time of 100 seconds. Responses (increase in peak fluorescence) in each well following addition were determined. The initial fluorescence reading from each well, prior to ligand stimulation, was used as a zero baseline value for the data from that well. The responses are expressed as % of maximal response of the positive control.
# Y5R = molecular target: T2, Y5R (Homo sapiens, UniProt Q15761); test: CaFlux Assay (FLIPR), Y5R
# T2 sequence (Q15761 1-445): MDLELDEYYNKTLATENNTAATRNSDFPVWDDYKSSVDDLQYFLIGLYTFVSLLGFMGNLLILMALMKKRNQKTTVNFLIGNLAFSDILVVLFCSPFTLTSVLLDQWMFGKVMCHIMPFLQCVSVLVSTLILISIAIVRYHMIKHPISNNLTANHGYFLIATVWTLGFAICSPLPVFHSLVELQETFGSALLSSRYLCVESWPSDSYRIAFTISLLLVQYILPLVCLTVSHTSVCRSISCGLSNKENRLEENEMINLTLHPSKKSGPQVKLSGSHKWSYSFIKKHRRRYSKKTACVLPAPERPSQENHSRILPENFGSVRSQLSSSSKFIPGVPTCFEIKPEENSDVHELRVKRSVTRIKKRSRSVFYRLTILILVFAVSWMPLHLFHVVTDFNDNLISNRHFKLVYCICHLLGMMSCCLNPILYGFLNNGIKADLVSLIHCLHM
# hNPY2R [2] = molecular target: T1, hNPY2R; test: cAMP Agonist Assay, HEK293/hNPY2R; design: expressed in transfected cells; host or cells: HEK293/hNPY2R (G418 selection)
# Procedure: In this example, the following materials were used: 384-well plate; Tropix cAMP-Screen Kit; cAMP ELISA System (Applied Biosystems, cat. #T1505; CS 20000); Forskolin (Calbiochem cat. # 344270); cells: HEK293/hNPY2R; growth medium: Dulbecco's modified eagle medium (D-MEM, Gibco); 10% Fetal bovine serum (FBS, Gibco), heat-inactivated; 1% Penicillin/Streptomycin (Pen 10000 unit/mL: Strep […], Gibco); […] G418 (Geneticin, Gibco cat. # 11811-031); and plating medium: DMEM/F12 w/o phenol red (Gibco); 10% FBS (Gibco, cat. # 10082-147), heat-inactivated; 1% Penicillin/Streptomycin (Gibco, cat. # 15140-122); […] G418 (Geneticin, Gibco, cat. # 11811-031).
# On the first day, medium was discarded, and the monolayer cells were washed with 10 mL PBS per flask (T225). After decanting with PBS, 5 mL VERSENE (Gibco, cat #1504006) was used to dislodge the cells (5 min @37 C). The flask was gently tapped and the cell suspension was pooled. Each flask was rinsed with 10 mL plating medium and centrifuged at 1000 rpm for 5 min. The suspension was pooled and counted. The suspension was resuspended in plating medium at a density of 2.0×10^5 cells/mL for HEK293/hNPY2R. 50 microliters of cells (HEK293/hNPY2R-10,000 cells/well) were transferred into the 384-well plate using Multi-drop dispenser. The plates were incubated at 37° C. overnight. On the second day, the cells were checked for 75-85% confluence. The media and reagents were allowed to come to room temperature. Before the dilutions were prepared, the stock solution of stimulating compound in dimethyl sulphoxide (DMSO, Sigma, cat #D2650) was allowed to warm up to 32 C for 5-10 min. The dilutions were prepared in DMEM/F12 with 0.5 mM 3-Isobutyl-1-methylxanthine (IBMX, Calbiochem, cat #410957) and 0.5 mg/mL BSA. The final DMSO concentration in the stimulation medium was 1.1% with Forskolin concentration of 5 μM. The cell medium was tapped off with a gentle inversion of the cell plate on a paper towel. 50 μL of stimulation medium was placed per well (each concentration done in four replicates). The plates were incubated at room temperature for 30 min, and the cells were checked under a microscope for toxicity. After 30 minutes of treatment, the stimulation media was discarded and […] of Assay Lysis Buffer (provided in the Tropix kit) was added. The plates were incubated for 45 min @ 37° C. 20 μL of the lysate was transferred from stimulation plates into the pre-coated antibody plates (384-well) from the Tropix kit. 10 μL of AP conjugate and 20 μL of anti-cAMP antibody was added. The plates were incubated at room temperature while shaking for 1 hour. The plates were then washed 5 times with Wash Buffer, 70 μL per well for each wash. The plates were tapped to dry. 30 μL/well of CSPD/Saphire-II RTU substrate/enhancer solution was added and incubated for 45 min @ RT (shake). Signal for 1 sec/well in a Luminometer. (VICTOR-V) was measured.
# Y1R = molecular target: T3, Y1R (Homo sapiens, UniProt P25929); test: CaFlux Assay (FLIPR), Y1R
# T3 sequence (P25929 1-384): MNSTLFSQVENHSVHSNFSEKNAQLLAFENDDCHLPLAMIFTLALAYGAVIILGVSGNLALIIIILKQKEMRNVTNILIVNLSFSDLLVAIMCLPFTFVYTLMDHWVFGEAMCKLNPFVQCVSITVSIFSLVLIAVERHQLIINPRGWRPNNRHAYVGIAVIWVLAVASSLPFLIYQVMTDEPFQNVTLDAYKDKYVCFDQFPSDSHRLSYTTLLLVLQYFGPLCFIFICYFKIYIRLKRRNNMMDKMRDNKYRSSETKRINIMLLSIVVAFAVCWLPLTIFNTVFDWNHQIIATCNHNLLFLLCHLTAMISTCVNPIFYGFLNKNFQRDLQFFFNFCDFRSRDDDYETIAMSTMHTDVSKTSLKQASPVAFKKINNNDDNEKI
# Y4R = Y4R (Homo sapiens, UniProt P50391); test: CaFlux Assay (FLIPR), Y4R
# Y4R, sequence (P50391 whole entry): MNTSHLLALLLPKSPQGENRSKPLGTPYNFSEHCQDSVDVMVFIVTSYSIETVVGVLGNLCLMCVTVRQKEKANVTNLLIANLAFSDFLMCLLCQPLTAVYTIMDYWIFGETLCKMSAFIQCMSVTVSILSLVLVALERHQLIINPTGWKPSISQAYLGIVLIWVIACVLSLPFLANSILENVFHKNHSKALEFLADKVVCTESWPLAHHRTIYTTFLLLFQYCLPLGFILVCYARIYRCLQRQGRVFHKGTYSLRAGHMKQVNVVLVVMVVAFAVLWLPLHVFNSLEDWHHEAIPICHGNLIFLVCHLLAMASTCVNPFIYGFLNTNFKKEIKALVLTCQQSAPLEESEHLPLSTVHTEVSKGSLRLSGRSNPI
Structure (SMILES),EC50 (hNPY2R [1]) [nM],EC50 (Y5R) [nM],Y5R FLIPR agonist character (partial agonist mark) (Y5R; FLIPR),EC50 (hNPY2R [2]) [nM],EC50 (Y1R) [nM],EC50 (Y4R) [nM]
CCCCCCCCCCCCCCCC(=O)NCCOCCNC(=O)CCC(=O)NCCCC[C@H](NC(=O)[C@@H](NC(=O)CCOCCOCCOCCOCCOCCOCCOCCOCCOCCOCCOCCOCCOCCOCCOCCOCCOCCOCCOCCOCCOCCOCCOCCOC)[C@@H](C)CC)C(=O)N1CCN(c2ccc3ncn(CC(=O)N[C@@H](CCCNC(=N)N)C(=O)N[C@@H](Cc4c[nH]cn4)C(=O)N[C@@H](Cc4ccc(O)cc4)C(=O)N[C@@H](CC(C)C)C(=O)N[C@@H](CC(N)=O)C(=O)N[C@@H](Cc4c[nH]c5ccccc45)C(=O)N[C@H](C(=O)N[C@H](C(=O)N[C@@H](CCCNC(=N)N)C(=O)N[C@@H](CCC(N)=O)C(=O)N(C)[C@@H](CCCNC(=N)N)C(=O)N[C@@H](Cc4ccc(O)cc4)C(N)=O)[C@@H](C)O)C(C)C)c(=O)c3c2)CC1 [Example 15],0.084,248,P.A,0.06,> 5000,> 5000
CCCCCCCCCCCCCCCC(=O)NCCOCCNC(=O)CCC(=O)NCCCC[C@H](NC(=O)[C@@H](NC(=O)CCOCCOCCOCCOCCOCCOCCOCCOCCOCCOCCOCCOCCOCCOCCOCCOCCOCCOCCOCCOCCOCCOCCOCCOC)[C@@H](C)CC)C(=O)N1CCN(c2ccc3ncn(CC(=O)N[C@@H](CCCNC(N)=O)C(=O)N[C@@H](Cc4c[nH]cn4)C(=O)N[C@@H](Cc4ccc(O)cc4)C(=O)N[C@@H](CC(C)C)C(=O)N[C@@H](CC(N)=O)C(=O)N[C@@H](Cc4c[nH]c5ccccc45)C(=O)N[C@H](C(=O)N[C@H](C(=O)N[C@@H](CCCNC(=N)N)C(=O)N[C@@H](CCC(N)=O)C(=O)N(C)[C@@H](CCCNC(=N)N)C(=O)N[C@@H](Cc4ccc(O)cc4)C(N)=O)[C@@H](C)O)C(C)C)c(=O)c3c2)CC1 [Example 16],0.059,1360,,0.09,> 5000,> 5000
CC[C@H](C)[C@H](NC(=O)CCCCCNC(=O)CCOCCOCCOCCOCCOCCOCCOCCOC)C(=O)N[C@@H](CCCCN)C(=O)N1CCN(c2ccc3ncn(CC(=O)N[C@@H](CCCNC(=N)N)C(=O)N[C@@H](Cc4c[nH]cn4)C(=O)N[C@@H](Cc4ccc(O)cc4)C(=O)N[C@@H](CC(C)C)C(=O)N[C@@H](CC(N)=O)C(=O)N[C@@H](Cc4c[nH]c5ccccc45)C(=O)N[C@H](C(=O)N[C@H](C(=O)N[C@@H](CCCNC(=N)N)C(=O)N[C@@H](CCC(N)=O)C(=O)N(C)[C@@H](CCCNC(=N)N)C(=O)N[C@@H](Cc4ccc(O)cc4)C(N)=O)[C@@H](C)O)C(C)C)c(=O)c3c2)CC1 [Example 17],0.479,> 6000,,1.4,> 6000,> 6000
CC[C@H](C)[C@H](NC(=O)CCCCCNC(=O)CCOCCOCCOCCOCCOCCOCCOCCOCCOCCOCCOCCOC)C(=O)N[C@@H](CCCCN)C(=O)N1CCN(c2ccc3ncn(CC(=O)N[C@@H](CCCNC(=N)N)C(=O)N[C@@H](Cc4c[nH]cn4)C(=O)N[C@@H](Cc4ccc(O)cc4)C(=O)N[C@@H](CC(C)C)C(=O)N[C@@H](CC(N)=O)C(=O)N[C@@H](Cc4c[nH]c5ccccc45)C(=O)N[C@H](C(=O)N[C@H](C(=O)N[C@@H](CCCNC(=N)N)C(=O)N[C@@H](CCC(N)=O)C(=O)N(C)[C@@H](CCCNC(=N)N)C(=O)N[C@@H](Cc4ccc(O)cc4)C(N)=O)[C@@H](C)O)C(C)C)c(=O)c3c2)CC1 [Example 18],0.357,> 6000,,0.9,> 6000,> 6000
CC[C@H](C)[C@H](NC(=O)CCCCCNC(=O)CCOCCOCCOCCOCCOCCOCCOCCOCCOCCOCCOCCOCCOCCOCCOCCOC)C(=O)N[C@@H](CCCCN)C(=O)N1CCN(c2ccc3ncn(CC(=O)N[C@@H](CCCNC(=N)N)C(=O)N[C@@H](Cc4c[nH]cn4)C(=O)N[C@@H](Cc4ccc(O)cc4)C(=O)N[C@@H](CC(C)C)C(=O)N[C@@H](CC(N)=O)C(=O)N[C@@H](Cc4c[nH]c5ccccc45)C(=O)N[C@H](C(=O)N[C@H](C(=O)N[C@@H](CCCNC(=N)N)C(=O)N[C@@H](CCC(N)=O)C(=O)N(C)[C@@H](CCCNC(=N)N)C(=O)N[C@@H](Cc4ccc(O)cc4)C(N)=O)[C@@H](C)O)C(C)C)c(=O)c3c2)CC1 [Example 19],0.424,> 6000,,0.26,> 6000,> 6000

# Source: US20110172147A1, “NEUROPEPTIDE-2 RECEPTOR (Y-2R) AGONISTS” (priority 2009, published 2011)
